Laboratory results: patent publication US20240132431A1, “METHOD FOR ALKYLATING ACIDIC FUNCTIONAL GROUP” (Chugai Seiyaku Kabushiki Kaisha, priority 2021, published 2024)
One block for each compound: values may come before it.

Target: T1, Bcl-2 protein (Recombinant Human Bcl-2 Protein) (Homo sapiens, UniProt P10415)
T1 construct: purchased Novus NBP2-34889
Assay: Binding evaluation of mixture library compounds to Bcl-2 using AS-MS (affinity selection mass spectrometry)
Settings: for ASMS ratio (%) n = 1: replicate n = 1; for ASMS ratio (%) n = 1 / ASMS ratio (%) n = 2: ASMS Ratio(%)=(A−C)/B×100; for ASMS ratio (%) n = 2: replicate n = 2
Outline: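 Pooled library of ~1200 compounds ([…] each, final) incubated with recombinant human Bcl-2 (20 μM final) in Tris-HCl pH 7.4, NaCl, Tween-20, DTT buffer, dark, 23° C., 1 h. Bound fraction recovered by SEC spin column, organic extraction, reversed-phase LC/MS. ASMS Ratio (%) = (A−C)/B×100 versus protein-free standard and SEC blank.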

[1] = AS-MS on the mixture of 1200 library compounds
[2] = AS-MS, mixture of 1200 compounds, Bcl-2

T1 sequence (P10415 whole entry): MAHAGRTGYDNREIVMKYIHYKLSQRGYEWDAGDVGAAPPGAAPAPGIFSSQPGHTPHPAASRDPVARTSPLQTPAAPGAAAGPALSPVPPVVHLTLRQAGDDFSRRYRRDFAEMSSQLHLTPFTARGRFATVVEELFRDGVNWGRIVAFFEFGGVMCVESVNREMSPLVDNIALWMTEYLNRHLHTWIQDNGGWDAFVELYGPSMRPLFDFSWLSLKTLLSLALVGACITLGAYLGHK

ASMS ratio (%) n = 1 (AS-MS, mixture library, Bcl-2): 0.0% | ASMS ratio (%) n = 2 (AS-MS, mixture library, Bcl-2): 0.0%
Compound: CCOc1cncc(-c2ccc(CN3CCN(c4ccc(C(=O)N(CC)CC)nn4)CC3)c(CC)c2)c1 [B4J076-01, 6-[4-[[4-(5-Ethoxypyridin-3-yl)-2-ethylphenyl]methyl]piperazin-1-yl]-N,N-diethylpyridazine-3-carboxamide]

ASMS ratio (%) n = 1 (AS-MS, mixture library, Bcl-2): −1.6% | ASMS ratio (%) n = 2 (AS-MS, mixture library, Bcl-2): 0.9%
Compound: CCOc1cncc(-c2ccccc2CN2CCN(c3ccc(C(=O)N(CC)CC)nn3)CC2)c1 [B4J072-01, 6-[4-[[2-(5-Ethoxypyridin-3-yl)phenyl]methyl]piperazin-1-yl]-N,N-diethylpyridazine-3-carboxamide]

ASMS ratio (%) (n = 1): 5.5% | ASMS ratio (%) (n = 2): 7.8%
Compound: CCOc1cncc(-c2ccc(CN3CCN(c4ccc(C(=O)NS(=O)(=O)C(C)(C)C)nn4)CC3)c3ccccc23)c1 [B2L092-01, N-tert-Butylsulfonyl-6-[4-[[4-(5-ethoxypyridin-3-yl)naphthalen-1-yl]methyl]piperazin-1-yl]pyridazine-3-carboxamide]

ASMS ratio (%) n = 1 (AS-MS, mixture library, Bcl-2): 5.9% | ASMS ratio (%) n = 2 (AS-MS, mixture library, Bcl-2): 9.7%
Compound: CCOc1cccc(-c2cc(C(=O)N3CCN(c4ccc(C(=O)NS(=O)(=O)CC56CC7CC(CC(C7)C5)C6)nn4)CC3)cc(C(C)(C)C)c2)c1 [B2A015-01, N-(1-Adamantylmethylsulfonyl)-6-[4-[3-tert-butyl-5-(3-ethoxyphenyl)benzoyl]piperazin-1-yl]pyridazine-3-carboxamide]

ASMS ratio (%) n = 1 [1]: −1.1% | ASMS ratio (%) n = 2 [1]: −3.1%
Compound: CCOc1cccc(-c2cc(OC)c(CN3CCN(c4ccc(C(=O)Nc5ccc(OC)cc5)nn4)CC3)c(OC)c2)c1 [B1O085-01, 6-[4-[[4-(3-Ethoxyphenyl)-2,6-dimethoxyphenyl]methyl]piperazin-1-yl]-N-(4-methoxyphenyl)pyridazine-3-carboxamide]

Compound: CCOc1cccc(-c2cc(OC)c(CN3CCN(c4ccc(C(=O)NCC(F)(F)F)cc4)CC3)c(OC)c2)c1 [B1K059-01]
ASMS ratio (%) n = 1 [2]: 3.0% | ASMS ratio (%) n = 2 [2]: −1.9%

ASMS ratio (%) (n = 1): 0.0% | ASMS ratio (%) (n = 2): 0.0%
Compound: CCOc1cncc(-c2cc(CN3CCN(c4ccc(C(=O)NS(C)(=O)=O)cc4)CC3)cc(OC(C)C)c2)c1 [B2I058-01, 4-[4-[[3-(5-Ethoxypyridin-3-yl)-5-propan-2-yloxyphenyl]methyl]piperazin-1-yl]-N-methylsulfonylbenzamide]

Compound: 4-[4-[[4-(5-Ethoxypyridin-3-yl)thiophen-2-yl]methyl]piperazin-1-yl]-N-propylbenzamide [B1M050-01]
ASMS ratio (%) n = 1 [2]: −2.0% | ASMS ratio (%) n = 2 [2]: −0.2%

ASMS ratio (%) (n = 1): 0.8% | ASMS ratio (%) (n = 2): 1.3%
Compound: CCOc1cncc(-c2ccccc2CN2CCN(c3ccc(C(=O)NS(C)(=O)=O)nn3)CC2)c1 [B2I072-01, 6-[4-[[2-(5-Ethoxypyridin-3-yl)phenyl]methyl]piperazin-1-yl]-N-methylsulfonylpyridazine-3-carboxamide]

Compound: CCOc1cccc(-c2cc(CN3CCN(c4ccc(C(=O)NS(=O)(=O)CCC(F)(F)F)cc4)CC3)cc(C(F)(F)F)c2)c1 [B2N061-01]
ASMS ratio (%) (n = 1): 0.0% | ASMS ratio (%) (n = 2): 0.0%

ASMS ratio (%) n = 1 (AS-MS, mixture library, Bcl-2): 18.2% | ASMS ratio (%) n = 2 (AS-MS, mixture library, Bcl-2): 2.1%
Compound: CCOc1cncc(-c2ccc(C(C)N3CCN(c4ccc(C(=O)NS(=O)(=O)CC56CC7CC(CC(C7)C5)C6)cc4)CC3)cc2)c1 (centres unmarked) [B2A098-01, N-(1-Adamantylmethylsulfonyl)-4-[4-[1-[4-(5-ethoxypyridin-3-yl)phenyl]ethyl]piperazin-1-yl]benzamide]

Compound: CCOc1cncc(-c2ccccc2CCC(=O)N2CCN(c3ccc(C(=O)N(CC)CC)cc3)CC2)c1 [B4J034-01, 4-[4-[3-[2-(5-Ethoxypyridin-3-yl)phenyl]propanoyl]piperazin-1-yl]-N,N-diethylbenzamide]
ASMS ratio (%) n = 1 [1]: −0.7% | ASMS ratio (%) n = 2 [1]: 0.9%

ASMS ratio (%) n = 1 [1]: 3.7% | ASMS ratio (%) n = 2 [1]: 0.5%
Compound: CCOc1cncc(-c2csc(CN3CCN(c4ccc(C(=O)N(C)CC56CC7CC(CC(C7)C5)C6)nn4)CC3)c2)c1 [B3A094-01, N-(1-Adamantylmethyl)-6-[4-[[4-(5-ethoxypyridin-3-yl)thiophen-2-yl]methyl]piperazin-1-yl]-N-methylpyridazine-3-carboxamide]

ASMS ratio (%) (n = 1): 0.0% | ASMS ratio (%) (n = 2): 0.0%
Compound: CCOc1cncc(-c2ccccc2CCC(=O)N2CCN(c3ccc(C(=O)NS(=O)(=O)CCC(F)(F)F)nn3)CC2)c1 [B2N012-01, 6-[4-[3-[2-(5-Ethoxypyridin-3-yl)phenyl]propanoyl]piperazin-1-yl]-N-(3,3,3-trifluoropropylsulfonyl)pyridazine-3-carboxamide]

ASMS ratio (%) n = 1 [1]: 8.4% | ASMS ratio (%) n = 2 [1]: −15.2%
Compound: CCOc1cncc(C#Cc2ccccc2C(=O)N2CCN(c3ccc(C(=O)N(C)CC45CC6CC(CC(C6)C4)C5)cc3)CC2)c1 [B3A030-01, N-(1-Adamantylmethyl)-4-[4-[2-[2-(5-ethoxypyridin-3-yl)ethynyl]benzoyl]piperazin-1-yl]-N-methylbenzamide]

ASMS ratio (%) (n = 1): 0.0% | ASMS ratio (%) (n = 2): 0.0%
Compound: CCOc1cncc(-c2ccc(CN3CCN(c4ccc(C(=O)NS(C)(=O)=O)cc4)CC3)c(OC)c2)c1 [B2I054-01, 4-[4-[[4-(5-Ethoxypyridin-3-yl)-2-methoxyphenyl]methyl]piperazin-1-yl]-N-methylsulfonylbenzamide]

ASMS ratio (%) n = 1 [2]: 6.4% | ASMS ratio (%) n = 2 [2]: 2.3%
Compound: CCOc1cncc(-c2ccc(C(C)N3CCN(c4ccc(C(=O)NCC56CC7CC(CC(C7)C5)C6)cc4)CC3)c(F)c2)c1 (centres unmarked) [B1A100-01, N-(1-Adamantylmethyl)-4-[4-[1-[4-(5-ethoxypyridin-3-yl)-2-fluorophenyl]ethyl]piperazin-1-yl]benzamide]

ASMS ratio (%) n = 1 (AS-MS, mixture library, Bcl-2): 3.1% | ASMS ratio (%) n = 2 (AS-MS, mixture library, Bcl-2): 7.2%
Compound: CCOc1cncc(C#Cc2ccccc2C(=O)N2CCN(c3ccc(C(=O)NS(=O)(=O)CC45CC6CC(CC(C6)C4)C5)nn3)CC2)c1 [B2A008-01, N-(1-Adamantylmethylsulfonyl)-6-[4-[2-[2-(5-ethoxypyridin-3-yl)ethynyl]benzoyl]piperazin-1-yl]pyridazine-3-carboxamide]

Compound: CCOc1cncc(-c2ccc(C(C)N3CCN(c4ccc(C(=O)N(CC)CC)cc4)CC3)cc2)c1 (centres unmarked) [B4J098-01, 4-[4-[1-[4-(5-Ethoxypyridin-3-yl)phenyl]ethyl]piperazin-1-yl]-N,N-diethylbenzamide]
ASMS ratio (%) n = 1 (AS-MS, mixture library, Bcl-2): −2.0% | ASMS ratio (%) n = 2 (AS-MS, mixture library, Bcl-2): −0.2%

ASMS ratio (%) n = 1 [1]: 2.9% | ASMS ratio (%) n = 2 [1]: −1.1%
Compound: CCOc1cccc(-c2ccccc2CN2CCN(c3ccc(C(=O)Nc4ccc(OC)cc4)nn3)CC2)c1 [B1O071-01, 6-[4-[[2-(3-Ethoxyphenyl)phenyl]methyl]piperazin-1-yl]-N-(4-methoxyphenyl)pyridazine-3-carboxamide]

ASMS ratio (%) n = 1 [2]: 2.4% | ASMS ratio (%) n = 2 [2]: 9.1%
Compound: CCOc1cncc(-c2ccc(C(=O)N3CCN(c4ccc(C(=O)NCC56CC7CC(CC(C7)C5)C6)nn4)CC3)cc2F)c1 [B1A006-01, N-(1-Adamantylmethyl)-6-[4-[4-(5-ethoxypyridin-3-yl)-3-fluorobenzoyl]piperazin-1-yl]pyridazine-3-carboxamide]

ASMS ratio (%) n = 1 (AS-MS, mixture library, Bcl-2): 1.6% | ASMS ratio (%) n = 2 (AS-MS, mixture library, Bcl-2): 0.3%
Compound: CCOc1cncc(-c2ccccc2CCC(=O)N2CCN(c3ccc(C(=O)NS(=O)(=O)CC45CC6CC(CC(C6)C4)C5)cc3)CC2)c1 [B2A034-01, N-(1-Adamantylmethylsulfonyl)-4-[4-[3-[2-(5-ethoxypyridin-3-yl)phenyl]propanoyl]piperazin-1-yl]benzamide]
